20 compounds from US20260159500A1, “KINESIN KIF18A INHIBITOR AND USE THEREOF” (SHANGHAI APEIRON THERAPEUTICS COMPANY LIMITED, priority 2022, published 2026) can be followed below.

For assay [1], the system named is OVCAR3 cells. The assay can be described thus: Cell proliferation activity test in OVCAR3 cells (CyQUANT Direct). Format: cell-based. The note with it: Homo sapiens, OVCAR-3, 72 h, 3 days incubation, CyQUANT fluorescence detection, read-out: OVCAR-3_IC50_nM. Put shortly: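 Log-phase cells in RPMI-1640 with 10% FBS were seeded overnight, then exposed to compound at final 0–10 μM (0.2% DMSO) for 3 days at 37 °C, 5% CO2. Proliferation was read by CyQUANT Direct fluorescence after 60 min at 37 °C.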

Assay [2] deals with T1, Human KIF18A (amino acid sequence 1-417) (Homo sapiens, UniProt Q8NI77).
T1 construct: purchased Viva Biotech (Shanghai) Ltd
T1 sequence (Q8NI77 1-417): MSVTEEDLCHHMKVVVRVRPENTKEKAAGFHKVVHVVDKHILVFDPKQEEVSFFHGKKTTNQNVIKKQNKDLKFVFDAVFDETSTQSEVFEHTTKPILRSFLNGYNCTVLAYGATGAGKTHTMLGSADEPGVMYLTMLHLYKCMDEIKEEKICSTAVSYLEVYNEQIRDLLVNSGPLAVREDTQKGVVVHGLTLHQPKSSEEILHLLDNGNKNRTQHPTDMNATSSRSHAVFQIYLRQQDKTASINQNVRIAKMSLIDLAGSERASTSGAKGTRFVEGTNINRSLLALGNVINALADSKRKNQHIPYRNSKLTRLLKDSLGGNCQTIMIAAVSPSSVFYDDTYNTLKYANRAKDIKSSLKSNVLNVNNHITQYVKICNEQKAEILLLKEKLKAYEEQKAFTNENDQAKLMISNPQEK
Kind of assay: Enzymatic activity test (ADP-Glo, microtubule-stimulated KIF18A ATPase). The class given is biochemical. Particulars: 60 μg/mL microtubules, 25 μM ATP, 2.5 nM KIF18A protein, 120 min at ambient temperature, read-out: KIF18A_nM. Put shortly:
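Microtubule-stimulated ATPase of KIF18A(1-417) run with 60 μg/mL microtubules, 25 μM ATP and 2.5 nM enzyme, compounds at 0-10 μM final, 120 min at ambient temperature. ADP formed was read by ADP-Glo chemiluminescence after two 30-min reagent incubations.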
Background: In ADP-Glo the light output rises with the ADP produced.

The test system of assay [3] is HT29 cells. Kind of assay: CyQuant cell proliferation activity test in HT29 cells. The class given is cell-based. Particulars: Homo sapiens, HT-29, 72 h, 2000 cells per well, 3 days incubation, IC50 by XLFIT, read-out: HT29_IC50_nM. The method, then:
HT29 cells were purchased from Nanjing Cobioer Biosciences Co., Ltd.; RPMI-1640 medium, fetal bovine serum, Trypsin-EDTA (0.25%), 96-well plates, and CyQuant reagents were purchased from ThermoFisher (USA); DMSO was purchased from SIGMA (USA).
Culture HT29 cells with RPMI-1640 containing 10% fetal bovine serum under the condition of 37° C. and 5% CO2. Only cells in the logarithmic growth phase can be used for the test.
Use the CyQuant reagent to detect the proliferation inhibitory activity of compounds on HT29 cells. Adjust the cell density and inoculate 100 μL per well into the 96-well plate (HT29 at 2000 cells per well), then incubate overnight under the condition of 37° C. and 5% CO2. Add compounds of various target concentrations (initial concentration of 3000 nM, 3-fold dilution, 9 concentration gradients), and make the DMSO content 0.2%. Incubate the cell plates at 37° C. and 5% CO2 for 3 days. Incubate with CyQuant reagent for 1 h, read the plate by Envision, and calculate IC50 using XLFIT.

Each structure is given as a SMILES string.

`O=C(Nc1cc2cccnc2c(N2CCC(F)(F)CC2)n1)c1cc(F)c(NS(=O)(=O)CCO)cc1N1CCC2(CC1)CC2` [Example 45, N-(8-(4,4-difluoropiperidin-1-yl)-1,7-naphthyridin-6-yl)-5-fluoro-4-((2-hydroxyethyl)sulfonamide)-2-(6-azaspiro[2.5]octan-6-yl)benzamide]: the IC50 amounted to 18 nM in assay [1], 28 nM in assay [2] and 31 nM in assay [3].

On to `O=C(Nc1cc2cccnc2c(N2CCC(F)(F)CC2)n1)c1c(F)cc(NS(=O)(=O)CCO)cc1N1CCC2(CC1)CC2` [Example 46, N-(8-(4,4-difluoropiperidin-1-yl)-1,7-naphthyridin-6-yl)-2-fluoro-4-((2-hydroxyethyl)sulfonamido)-6-(6-azaspiro[2.5]octan-6-yl)benzamide], for which the IC50 in assay [1] was determined as 12 nM; in assay [2], 39 nM; in assay [3], 14 nM.

`C[C@@H]1CN(c2nc(NC(=O)c3ccc(NS(=O)(=O)CCO)cc3N3CCC4(CC3)CC4)cc3cccnc23)CCO1` [Example 47]: the IC50 in assay [1] was 48 nM; in assay [2], 39 nM; in assay [3], 40 nM.

On to `CN1CCN(c2nc(NC(=O)c3ccc(NS(=O)(=O)CCO)cc3N3CCC4(CC3)CC4)cc3cccnc23)CC1` [Example 48], for which the IC50 in assay [1] worked out at 236 nM; in assay [2], 108 nM; in assay [3], 360 nM.

Consider `O=C(Nc1cc2cccnc2c(N2CCN(CC(F)(F)F)CC2)n1)c1ccc(NS(=O)(=O)CCO)cc1N1CCC2(CC1)CC2` [Example 49, 4-(2-hydroxyethylsulfonamido)-2-(6-azaspiro[2.5]octan-6-yl)-N-(8-(4-(2,2,2-trifluoroethyl)piperazin-1-yl)-1,7-naphthyridin-6-yl)benzamide], for which the IC50 in assay [1] was 1340 nM; in assay [2], 1220 nM; in assay [3] it was 1430 nM.

Consider `Cc1ccc2cc(NC(=O)c3ccc(NS(=O)(=O)CCO)cc3N3CCC4(CC3)CC4)nc(N3CCC(F)(F)CC3)c2n1` [Example 51, N-(8-(4,4-difluoropiperidin-1-yl)-2-methyl-1,7-naphthyridin-6-yl)-4-(2-hydroxyethylsulfonamido)-2-(6-azaspiro[2.5]octan-6-yl)benzamide], for which the IC50 in assay [1] stood at 385 nM; in assay [2], 455 nM; in assay [3] it was 387 nM.

Consider `COc1ccc2cc(NC(=O)c3ccc(NS(=O)(=O)CCO)cc3N3CCC4(CC3)CC4)nc(N3CCC(F)(F)CC3)c2n1` [Example 52, N-(8-(4,4-difluoropiperidin-1-yl)-2-methoxy-1,7-naphthyridin-6-yl)-4-(2-hydroxyethylsulfonamido)-2-(6-azaspiro[2.5]octan-6-yl)benzamide], for which the IC50 in assay [1] was 83 nM; in assay [2] it was 149 nM; in assay [3], 92 nM.

With `Nc1ccc2cc(NC(=O)c3ccc(NS(=O)(=O)CCO)cc3N3CCC4(CC3)CC4)nc(N3CCC(F)(F)CC3)c2n1` [Example 53, N-(2-amino-8-(4,4-difluoropiperidin-1-yl)-1,7-naphthyridin-6-yl)-4-(2-hydroxyethylsulfonamido)-2-(6-azaspiro[2.5]octan-6-yl)benzamide], the IC50 in assay [1] was 4 nM; in assay [2] it was 94 nM; in assay [3] it was 6 nM.

Regarding `O=C(Nc1cc2ccc(O)nc2c(N2CCC(F)(F)CC2)n1)c1ccc(NS(=O)(=O)CCO)cc1N1CCC2(CC1)CC2` [Example 54, 2-{6-azaspiro[2.5]octan-6-yl}-N-[8-(4,4-difluoropiperidin-1-yl)-2-hydroxy-1,7-naphthyridin-6-yl]-4-(2-hydroxyethanesulfonamido)benzamide], the IC50 was 6 nM in assay [1], 27 nM in assay [2] and 18 nM in assay [3].

As to `O=C(Nc1cc2ccccc2c(N2CCC(F)(F)CC2)n1)c1ccc(NS(=O)(=O)CCO)cc1N1CCC2(CC1)CC2` [Example 55], the figures for the IC50 in assay [1], in assay [2] and in assay [3] were 112 nM, 250 nM and 89 nM, respectively.

Regarding `O=C(Nc1cc2ccncc2c(N2CCC(F)(F)CC2)n1)c1ccc(NS(=O)(=O)CCO)cc1N1CCC2(CC1)CC2` [Example 56], the results for the IC50 in assay [1], in assay [2] and in assay [3] were 12 nM, 34 nM and 13 nM, respectively.

As for `O=C(Nc1cc2cncnc2c(N2CCC(F)(F)CC2)n1)c1ccc(NS(=O)(=O)CCO)cc1N1CCC2(CC1)CC2` [Example 58], the IC50 in assay [1] was 12 nM; in assay [2] it was 32 nM; in assay [3] it was 17 nM.

Regarding `O=C(Nc1cc2nccnc2c(N2CCC(F)(F)CC2)n1)c1ccc(NS(=O)(=O)CCO)cc1N1CCC2(CC1)CC2` [Example 59], the results for the IC50 in assay [1], in assay [2] and in assay [3] were 14 nM, 38 nM and 22 nM, respectively.

On to `COc1cc2cc(NC(=O)c3ccc(NS(=O)(=O)CCO)cc3N3CCC4(CC3)CC4)nc(N3CCC(F)(F)CC3)c2nn1` [Example 60, N-(8-(4,4-difluoropiperidin-1-yl)-3-methoxypyrido[3,4-c]pyridazin-6-yl)-4-(2-hydroxyethylsulfonamido)-2-(6-azaspiro[2.5]octan-6-yl)benzamide], for which the values for the IC50 in assay [1], in assay [2] and in assay [3] were 18 nM, 66 nM and 13 nM, respectively.

In the case of `O=C(Nc1cc2cc(O)nnc2c(N2CCC(F)(F)CC2)n1)c1ccc(NS(=O)(=O)CCO)cc1N1CCC2(CC1)CC2` [Example 61, 2-{6-Azaspiro[2.5]octan-6-yl}-N-[8-(4,4-difluoropiperidin-1-yl)-3-hydroxypyrido[3,4-c]pyridazin-6-yl]-4-(2-hydroxyethanesulfonamido)benzamide], the IC50 in assay [1] was 74 nM; in assay [2], 15 nM; in assay [3], 111 nM.

`Nc1cc2cc(NC(=O)c3ccc(NS(=O)(=O)CCO)cc3N3CCC4(CC3)CC4)nc(N3CCC(F)(F)CC3)c2nn1` [Example 62, N-[3-amino-8-(4,4-difluoropiperidin-1-yl)pyrido[3,4-c]pyridazin-6-yl]-2-{6-azaspiro[2.5]octan-6-yl}-4-(2-hydroxyethanesulfonamido)benzamide]: the figures for the IC50 in assay [1], in assay [2] and in assay [3] were 13 nM, 28 nM and 12 nM, respectively.

Take `O=C(Nc1cc(N2CCC(F)(F)CC2)c2ncccc2c1)c1ccc(NS(=O)(=O)CCO)cc1N1CCC2(CC1)CC2` [Example 63]: the IC50 in assay [1] is 11 nM; in assay [2], 35 nM; in assay [3], 15 nM.

`Cc1ccc2cc(NC(=O)c3ccc(NS(=O)(=O)CCO)cc3N3CCC4(CC3)CC4)cc(N3CCC(F)(F)CC3)c2n1` [Example 64]: the IC50 in assay [1] was determined as 76 nM; in assay [2] it was 116 nM; in assay [3], 82 nM.

For `COc1ccc2cc(NC(=O)c3ccc(NS(=O)(=O)CCO)cc3N3CCC4(CC3)CC4)cc(N3CCC(F)(F)CC3)c2n1` [Example 65, N-(8-(4,4-difluoropiperidin-1-yl)-2-methoxyquinolin-6-yl)-4-(2-hydroxyethylsulfonamide)-2-(6-azaspiro[2.5]octan-6-yl)benzamide], the figures for the IC50 in assay [1], in assay [2] and in assay [3] were 420 nM, 232 nM and 372 nM, respectively.

For the compound `O=C(Nc1cc(N2CCC(F)(F)CC2)c2nc(O)ccc2c1)c1ccc(NS(=O)(=O)CCO)cc1N1CCC2(CC1)CC2` [Example 66], the IC50 in assay [1] worked out at 35 nM; in assay [2], 23 nM; in assay [3] it was 80 nM.
